Experimental data taken from ChEMBL document CHEMBL5385861, “Development of novel hydrazidoarylaminopyrimidine-based BTK/FLT3 dual inhibitors with potent in vivo anti-hematological malignancies effects” (Eur J Med Chem, 2023).
Activity calls are given as the source filed them. The rule behind the calls is not given here.

Assays:
[1] = target: Serine-protein kinase ATM (Homo sapiens) (UniProt Q13315); experiment: Inhibition of ATM (unknown origin) at 0.2 uM incubated for 40 mins by radiometric kinase assay relative to control
[2] = target: Mast/stem cell growth factor receptor Kit (Homo sapiens) (UniProt P10721); experiment: Inhibition of cKit (unknown origin) at 0.2 uM incubated for 40 mins by radiometric kinase assay relative to control
[3] = target: RAF proto-oncogene serine/threonine-protein kinase (Homo sapiens) (UniProt P04049); experiment: Inhibition of c-RAF (unknown origin) at 0.2 uM incubated for 40 mins by radiometric kinase assay relative to control
[4] = target: Epidermal growth factor receptor (Homo sapiens) (UniProt P00533); experiment: Inhibition of EGFR (unknown origin) at 0.2 uM incubated for 40 mins by radiometric kinase assay relative to control
[5] = test system: Receptor-type tyrosine-protein kinase FLT3 (Homo sapiens), P36888 [D835Y]; experiment: Inhibition of FLT3 D835Y mutant (unknown origin) at 0.2 uM incubated for 40 mins by radiometric kinase assay relative to control
[6] = target: Inhibitor of nuclear factor kappa-B kinase subunit alpha (Homo sapiens) (UniProt O15111); experiment: Inhibition of IKKalpha (unknown origin) at 0.2 uM incubated for 40 mins by radiometric kinase assay relative to control
[7] = target: Inhibitor of nuclear factor kappa-B kinase subunit beta (Homo sapiens) (UniProt O14920); experiment: Inhibition of IKKbeta (unknown origin) at 0.2 uM incubated for 40 mins by radiometric kinase assay relative to control
[8] = target: Mitogen-activated protein kinase 8 (Homo sapiens) (UniProt P45983); experiment: Inhibition of JNK1alpha1 (unknown origin) at 0.2 uM incubated for 40 mins by radiometric kinase assay relative to control
[9] = target: Mitogen-activated protein kinase 9 (Homo sapiens) (UniProt P45984); experiment: Inhibition of JNK2alpha2 (unknown origin) at 0.2 uM incubated for 40 mins by radiometric kinase assay relative to control
[10] = target: MAP kinase-activated protein kinase 2 (Homo sapiens) (UniProt P49137); experiment: Inhibition of MAPKAP-K2 (unknown origin) at 0.2 uM incubated for 40 mins by radiometric kinase assay relative to control
[11] = target: Dual specificity mitogen-activated protein kinase kinase 1 (Homo sapiens) (UniProt Q02750); experiment: Inhibition of MEK1 (unknown origin) at 0.2 uM incubated for 40 mins by radiometric kinase assay relative to control
[12] = target: Dual specificity mitogen-activated protein kinase kinase 6 (Homo sapiens) (UniProt P52564); experiment: Inhibition of MKK6 (unknown origin) at 0.2 uM incubated for 40 mins by radiometric kinase assay relative to control
[13] = target: Serine/threonine-protein kinase mTOR (Homo sapiens) (UniProt P42345); experiment: Inhibition of mTOR (unknown origin) at 0.2 uM incubated for 40 mins by radiometric kinase assay relative to control
[14] = target: Serine/threonine-protein kinase PLK1 (Homo sapiens) (UniProt P53350); experiment: Inhibition of PLK1 (unknown origin) at 0.2 uM incubated for 40 mins by radiometric kinase assay relative to control
[15] = target: Mitogen-activated protein kinase kinase kinase 7 (Homo sapiens) (UniProt O43318); experiment: Inhibition of TAK1 (unknown origin) at 0.2 uM incubated for 40 mins by radiometric kinase assay relative to control
JeKo-1 [16] = experiment: Potency index, ratio of sorafenib IC50 to test compound IC50 for antiproliferative activity against human JeKo-1 cells; assay type: functional
K562 [17] = experiment: Potency index, ratio of sorafenib IC50 to test compound IC50 for antiproliferative activity against human K562 cells; assay type: functional
[18] = target: 1-phosphatidylinositol 4,5-bisphosphate phosphodiesterase gamma-2 (Homo sapiens) (UniProt P16885); experiment: Inhibition of PLCgamma2 phosphorylation in human JeKo-1 cells incubated for 72 hrs by Western blot analysis; assay type: cell-based; conditions: dose 30-750 nM
[19] = target: Signal transducer and activator of transcription 5A (Homo sapiens) (UniProt P42229); experiment: Inhibition of STAT5 phosphorylation in human JeKo-1 cells incubated for 72 hrs by Western blot analysis; assay type: cell-based; conditions: dose 30-750 nM
JeKo-1 [20] = experiment: Induction of apoptosis in human JeKo-1 cells assessed as viable cells at 30 nM incubated for 72 hrs by Annexin VFITC/PI staining based flow cytometry analysis (reference value: 94.81%); assay type: functional; conditions: read-out: Activity
JeKo-1 [21] = experiment: Induction of apoptosis in human JeKo-1 cells assessed as necrotic cells at 30 nM incubated for 72 hrs by Annexin VFITC/PI staining based flow cytometry analysis (reference value: 0.67%); assay type: functional
JeKo-1 [22] = experiment: Induction of apoptosis in human JeKo-1 cells assessed as upregulation of Bax protein expression at 30 to 750 nM incubated for 72 hrs by Western blot analysis; assay type: functional, cell-based; conditions: dose 30-750 nM
JeKo-1 [23] = experiment: Induction of apoptosis in human JeKo-1 cells assessed as upregulation of cleaved caspase-3 protein expression incubated for 72 hrs by Western blot analysis; assay type: functional, cell-based; conditions: dose 30-750 nM
[24] = Acute toxicity in ICR mouse assessed as animal survival at 585.9 mg/kg, ip measured for 2 weeks; assay type: organism-based; conditions: in vivo
[25] = Acute toxicity in ICR mouse assessed as animal survival at 240 mg/kg, ip measured for 2 weeks; assay type: organism-based; conditions: in vivo
[26] = Acute toxicity in ip dosed ICR mouse assessed as lethal dose measured for 2 weeks; assay type: organism-based; conditions: in vivo
[27] = Toxicity in NOD/SCID mouse xenografted with human JeKo-1 cells assessed as eating abnormalities at 25 to 50 mg/kg, ip measured for 16 days; assay type: organism-based; conditions: in vivo, 384 h, dose 25-50 mg/kg, time 16 day
MV4-11 [28] = experiment: Antitumor activity against human MV4-11 cells xenografted in NOD/SCID mouse assessed as tumor growth inhibition at 20 mg/kg ip administered once daily for 21 days; assay type: functional; conditions: MV4-11, 504 h, time 21 day, read-out: TGI
MV4-11 [29] = experiment: cells; conditions: Homo sapiens, MV4-11, 72 h
MOLT-4 = experiment: cells; conditions: Homo sapiens, MOLT-4, 72 h
Description: Antiproliferative activity against human MOLT-4 cells assessed as inhibition of cell growth incubated for 72 hrs by CCK8 assay

K562 [30] = experiment: cells; conditions: Homo sapiens, K562, 72 h
Description: Antiproliferative activity against human K562 cells assessed as inhibition of cell growth incubated for 72 hrs by CCK8 assay

in vitro = conditions: human, Caco-2
Description: Apparent permeability across basolateral to apical side in human Caco-2 cells incubated for 120 mins by LC-MS/MS analysis

[31] = test system: Tyrosine-protein kinase Tec; experiment: Inhibition of TEC (unknown origin) at 0.2 uM incubated for 40 mins by radiometric kinase assay relative to control; conditions: Homo sapiens

Chain of MAP kinase-activated protein kinase 2 (Homo sapiens) (P49137 whole entry, looked up): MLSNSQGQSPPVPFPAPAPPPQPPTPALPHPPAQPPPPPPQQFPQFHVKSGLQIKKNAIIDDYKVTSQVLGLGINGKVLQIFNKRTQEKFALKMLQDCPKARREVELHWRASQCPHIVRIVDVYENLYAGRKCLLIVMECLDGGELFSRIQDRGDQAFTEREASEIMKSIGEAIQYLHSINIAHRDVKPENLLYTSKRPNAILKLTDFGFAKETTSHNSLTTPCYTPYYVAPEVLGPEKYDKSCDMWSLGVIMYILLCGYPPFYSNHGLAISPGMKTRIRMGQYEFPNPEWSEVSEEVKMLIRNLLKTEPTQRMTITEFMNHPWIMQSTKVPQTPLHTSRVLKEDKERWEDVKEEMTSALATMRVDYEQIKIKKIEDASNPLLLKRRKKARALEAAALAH
Chain of Mitogen-activated protein kinase kinase kinase 7 (Homo sapiens) (O43318 whole entry): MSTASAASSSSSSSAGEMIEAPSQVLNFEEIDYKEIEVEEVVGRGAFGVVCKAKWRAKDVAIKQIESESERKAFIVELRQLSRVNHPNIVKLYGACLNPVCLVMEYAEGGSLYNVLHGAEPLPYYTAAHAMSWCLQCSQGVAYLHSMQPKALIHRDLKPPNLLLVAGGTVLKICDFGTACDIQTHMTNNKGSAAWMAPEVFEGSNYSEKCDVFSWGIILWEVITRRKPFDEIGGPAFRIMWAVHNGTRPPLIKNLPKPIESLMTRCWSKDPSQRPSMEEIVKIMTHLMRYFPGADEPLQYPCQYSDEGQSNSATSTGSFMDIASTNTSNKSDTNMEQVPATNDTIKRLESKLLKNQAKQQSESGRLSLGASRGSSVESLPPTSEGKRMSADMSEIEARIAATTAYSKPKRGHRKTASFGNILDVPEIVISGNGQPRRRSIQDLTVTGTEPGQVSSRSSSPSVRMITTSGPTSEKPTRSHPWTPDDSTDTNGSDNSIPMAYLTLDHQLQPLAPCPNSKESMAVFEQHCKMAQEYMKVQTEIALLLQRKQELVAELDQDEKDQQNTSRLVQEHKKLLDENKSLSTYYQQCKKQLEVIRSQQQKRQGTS
Chain of Inhibitor of nuclear factor kappa-B kinase subunit beta (Homo sapiens) (O14920 whole entry): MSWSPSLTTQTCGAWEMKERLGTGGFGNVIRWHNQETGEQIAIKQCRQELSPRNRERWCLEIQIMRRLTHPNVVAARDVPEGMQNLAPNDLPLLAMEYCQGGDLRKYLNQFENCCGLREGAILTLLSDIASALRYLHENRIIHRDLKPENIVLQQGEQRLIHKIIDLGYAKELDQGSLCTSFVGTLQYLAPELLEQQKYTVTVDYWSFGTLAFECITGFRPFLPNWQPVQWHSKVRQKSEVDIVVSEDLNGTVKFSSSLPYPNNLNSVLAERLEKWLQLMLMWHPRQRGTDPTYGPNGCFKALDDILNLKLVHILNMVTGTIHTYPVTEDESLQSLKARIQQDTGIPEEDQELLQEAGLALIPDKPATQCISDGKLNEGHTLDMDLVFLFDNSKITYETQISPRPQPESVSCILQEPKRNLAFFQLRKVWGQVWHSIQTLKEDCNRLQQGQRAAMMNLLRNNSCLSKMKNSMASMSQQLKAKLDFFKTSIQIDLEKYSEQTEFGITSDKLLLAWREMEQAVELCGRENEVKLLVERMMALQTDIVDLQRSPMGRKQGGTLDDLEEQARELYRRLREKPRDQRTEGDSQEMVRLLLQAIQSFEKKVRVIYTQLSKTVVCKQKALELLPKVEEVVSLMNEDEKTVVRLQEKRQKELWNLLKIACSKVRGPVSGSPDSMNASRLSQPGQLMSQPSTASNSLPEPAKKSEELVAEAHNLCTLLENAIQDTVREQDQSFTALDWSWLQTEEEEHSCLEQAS
Chain of Serine-protein kinase ATM (Homo sapiens) (Q13315 whole entry): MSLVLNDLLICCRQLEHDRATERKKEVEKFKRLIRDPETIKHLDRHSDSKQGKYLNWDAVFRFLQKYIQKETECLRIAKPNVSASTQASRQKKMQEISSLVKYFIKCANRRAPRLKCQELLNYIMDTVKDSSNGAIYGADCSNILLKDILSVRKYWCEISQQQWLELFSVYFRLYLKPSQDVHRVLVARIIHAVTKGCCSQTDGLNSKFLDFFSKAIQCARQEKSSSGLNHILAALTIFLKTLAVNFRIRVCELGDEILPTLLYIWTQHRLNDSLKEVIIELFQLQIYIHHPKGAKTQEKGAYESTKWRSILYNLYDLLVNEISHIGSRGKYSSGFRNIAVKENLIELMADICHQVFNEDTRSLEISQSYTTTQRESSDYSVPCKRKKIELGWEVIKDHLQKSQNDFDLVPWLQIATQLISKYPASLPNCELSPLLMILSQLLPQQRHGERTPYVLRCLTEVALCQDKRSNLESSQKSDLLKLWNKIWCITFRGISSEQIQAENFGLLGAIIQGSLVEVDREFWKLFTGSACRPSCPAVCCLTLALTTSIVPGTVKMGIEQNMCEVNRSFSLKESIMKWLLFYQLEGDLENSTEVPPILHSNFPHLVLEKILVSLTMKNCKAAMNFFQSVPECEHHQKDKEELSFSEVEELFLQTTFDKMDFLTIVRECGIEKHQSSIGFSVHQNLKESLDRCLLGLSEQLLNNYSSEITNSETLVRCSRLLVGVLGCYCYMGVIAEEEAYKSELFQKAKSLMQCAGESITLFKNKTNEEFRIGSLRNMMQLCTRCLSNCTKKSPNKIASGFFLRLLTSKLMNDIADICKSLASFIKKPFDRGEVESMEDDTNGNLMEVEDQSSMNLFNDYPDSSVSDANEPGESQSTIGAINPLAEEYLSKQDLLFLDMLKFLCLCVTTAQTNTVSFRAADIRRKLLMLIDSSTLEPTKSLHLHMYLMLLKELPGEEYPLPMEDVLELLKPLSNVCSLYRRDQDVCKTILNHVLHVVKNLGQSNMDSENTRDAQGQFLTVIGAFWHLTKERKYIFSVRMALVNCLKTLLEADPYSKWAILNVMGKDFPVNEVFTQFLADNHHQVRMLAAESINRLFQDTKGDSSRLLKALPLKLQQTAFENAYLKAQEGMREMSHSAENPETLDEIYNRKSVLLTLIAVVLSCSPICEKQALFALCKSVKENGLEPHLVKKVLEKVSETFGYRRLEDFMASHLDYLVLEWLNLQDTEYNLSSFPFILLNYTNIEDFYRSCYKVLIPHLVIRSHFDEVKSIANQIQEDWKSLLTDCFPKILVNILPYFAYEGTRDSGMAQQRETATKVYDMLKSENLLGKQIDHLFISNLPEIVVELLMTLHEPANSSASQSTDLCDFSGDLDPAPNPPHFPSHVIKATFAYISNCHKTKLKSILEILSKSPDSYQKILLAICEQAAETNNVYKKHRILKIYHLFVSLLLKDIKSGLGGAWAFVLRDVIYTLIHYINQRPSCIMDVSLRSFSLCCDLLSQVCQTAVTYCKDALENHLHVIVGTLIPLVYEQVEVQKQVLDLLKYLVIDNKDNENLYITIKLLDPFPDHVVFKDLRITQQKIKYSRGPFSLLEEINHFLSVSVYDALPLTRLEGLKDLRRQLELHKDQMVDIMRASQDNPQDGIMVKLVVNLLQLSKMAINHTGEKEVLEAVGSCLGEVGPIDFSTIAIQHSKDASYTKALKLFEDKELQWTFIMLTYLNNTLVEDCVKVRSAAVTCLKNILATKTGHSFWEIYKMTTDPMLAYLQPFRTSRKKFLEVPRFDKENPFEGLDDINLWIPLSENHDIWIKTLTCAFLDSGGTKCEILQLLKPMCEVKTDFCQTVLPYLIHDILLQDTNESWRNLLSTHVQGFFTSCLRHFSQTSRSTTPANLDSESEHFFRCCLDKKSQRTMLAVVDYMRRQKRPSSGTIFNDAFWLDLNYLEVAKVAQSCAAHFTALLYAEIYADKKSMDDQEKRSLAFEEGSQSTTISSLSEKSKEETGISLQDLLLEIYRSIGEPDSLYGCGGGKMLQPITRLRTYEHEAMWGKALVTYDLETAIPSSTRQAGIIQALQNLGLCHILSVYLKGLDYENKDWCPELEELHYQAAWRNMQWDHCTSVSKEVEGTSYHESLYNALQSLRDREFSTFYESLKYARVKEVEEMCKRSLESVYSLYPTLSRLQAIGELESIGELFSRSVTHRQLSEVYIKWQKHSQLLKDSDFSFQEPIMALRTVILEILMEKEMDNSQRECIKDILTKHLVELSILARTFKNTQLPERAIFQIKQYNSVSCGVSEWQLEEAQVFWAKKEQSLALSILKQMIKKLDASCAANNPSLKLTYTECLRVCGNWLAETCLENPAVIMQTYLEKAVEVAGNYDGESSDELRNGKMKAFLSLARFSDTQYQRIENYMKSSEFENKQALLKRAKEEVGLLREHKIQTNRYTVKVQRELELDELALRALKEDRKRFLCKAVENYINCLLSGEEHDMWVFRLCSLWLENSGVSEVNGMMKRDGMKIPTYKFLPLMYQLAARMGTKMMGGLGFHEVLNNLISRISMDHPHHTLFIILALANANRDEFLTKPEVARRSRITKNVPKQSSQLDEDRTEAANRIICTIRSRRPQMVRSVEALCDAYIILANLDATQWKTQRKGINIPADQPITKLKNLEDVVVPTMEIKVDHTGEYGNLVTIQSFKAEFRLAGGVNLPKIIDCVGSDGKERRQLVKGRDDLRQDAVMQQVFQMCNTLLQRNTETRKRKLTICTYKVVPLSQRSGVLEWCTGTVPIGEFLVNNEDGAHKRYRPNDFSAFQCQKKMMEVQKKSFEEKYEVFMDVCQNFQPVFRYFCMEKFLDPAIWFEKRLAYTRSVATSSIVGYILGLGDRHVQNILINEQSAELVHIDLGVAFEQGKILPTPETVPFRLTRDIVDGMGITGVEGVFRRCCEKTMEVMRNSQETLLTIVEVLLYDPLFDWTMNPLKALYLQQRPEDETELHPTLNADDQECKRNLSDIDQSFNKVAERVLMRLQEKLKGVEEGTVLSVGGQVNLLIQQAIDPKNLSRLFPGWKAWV

CN1CCN(c2ccc(Nc3ncc(F)c(Nc4ccccc4C(=O)NN)n3)cc2)CC1
inhibition [1]: -6% | inhibition [2]: 10% | inhibition [3]: -10% | inhibition [4]: 8% | inhibition [5]: 101% | inhibition [6]: 17% | inhibition [7]: 15% | inhibition [8]: 27% | inhibition [9]: 11% | inhibition [10]: 6% | inhibition [11]: -3% | inhibition [12]: 10% | inhibition [13]: -7% | inhibition [14]: 7% | inhibition [15]: 26% | Ratio IC50 (JeKo-1 [16]): 1.3 | Ratio IC50 (K562 [17]): 1.3 | inhibition [18]: Dose-Dependent Effect | inhibition [19]: Dose-Dependent Effect | viability at 0.03 µM (JeKo-1 [20]): 87.5% | Activity (JeKo-1 [21]): 0.22% | Activity (JeKo-1 [22]): Active | Activity (JeKo-1 [23]): Dose-Dependent Effect | survival at 336 h [24]: 0% | survival at 336 h [25]: 100% | LD50 at 336 h [26]: 343 mg/kg | Activity [27]: Non-Toxic | inhibition in vivo at 20 mg/kg (MV4-11 [28]): 100% | IC50 (MV4-11 [29]): 3 nM | IC50 (MOLT-4): 11 nM | IC50 (K562 [30]): 930 nM | Papp B→A at 2 h (in vitro): 13.5 ×10⁻⁶ cm/s | inhibition [31]: 47%
